The nature of this data set: gradient 5% acetonitrile 3 min, to 50% in 2 min, to 85% in 15 min, held 3 min, 100 µL/min. The settings on record: column: Zorbax Extend-C18 2.1 x 50 mm; eluents: water / acetonitrile, 0.1% formic acid. The method, boiled down: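 Mixtures of ~100 pure standards were chromatographed on a Zorbax Extend-C18 column (2.1 × 50 mm, 1.8 μm) at 100 μL/min using water and acetonitrile, each with 0.1% formic acid. Detection used a quadrupole time-of-flight mass spectrometer in positive and negative ionization mode, and data collection spanned 3 months. Retention time was obtained from adduct peaks picked computationally and each checked manually.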
Turning to `c1ccc(OCc2nc(-c3ccc(-c4csc(C5CC5)n4)cc3)no2)cc1`, the RP-LC retention time is 1330 s.
To `COc1ccc(-c2nc(Cn3cnc4ccccc4c3=O)no2)c(OC)c1` belongs 765 s.
For `O=C(c1cc(C2CC2)[nH]n1)N1CC(n2cc(COCc3ccccc3)nn2)C1` the value was 730 s; for `Cc1nn(-c2ccc(Cl)cc2)c2nc(N3CCCC(C(=O)NCc4cccc(F)c4)C3)sc12` (stereo not drawn), 1240 s; for `O=C1Cc2ccccc2N1c1c(Cl)cccc1Cl`, 875 s.
For `O=C(Cc1ccc(Cl)cc1)N1CC(Cc2nncn2CC2CC2)C1` the value was 686 s.
`COc1cccc(CNC(=O)N2CCCC(C)(C(=O)NCc3ccccc3C)C2)c1` (stereo not drawn) showed an RP-LC retention time of 860 s.
For `Cc1noc(-c2ccnc(-n3cnc(C(=O)N(C)C4CCCCC4)c3)c2)n1` the value was 737 s; for `O=C(NCC1(c2cccs2)CCOCC1)c1ccsc1`, 706 s; for `CC(C)N1CCN(C(=O)C2=NN(c3ccc(Cl)cc3)c3ncccc3S2(=O)=O)CC1`, 654 s.
To `COc1ccccc1-c1nc(-c2ccc3nnn(C(C)C)c3c2)no1` belongs 962 s; to `Cc1ccc(C(C)C)c(OCC(=O)Nc2ccc(S(=O)(=O)Nc3cc(C)on3)cc2)c1`, 1000 s.
In the case of `Cc1ccc2[nH]cc(CCNC(=O)CCc3ccccc3)c2c1`, the RP-LC retention time was determined as 880 s.
To `CC(=O)N(CC(=O)N1CCc2sccc2C1COc1ccc(F)cc1)C(C)C` (stereo not drawn) belongs 805 s; to `CC(C)n1c(=O)sc2cc(S(=O)(=O)N3CCC(C(=O)NCc4ccccc4)CC3)ccc21`, 932 s; to `O=C(CCc1cn(Cc2ccccc2F)c2ccccc12)N1CCN(c2ccccn2)CC1`, 737 s.
To `CCc1ccc(N2CC(c3noc(-c4ccc(-c5ccccc5)cc4)n3)CC2=O)cc1` (stereo not drawn) belongs 1340 s.
`OC1(c2ccccn2)CCOC2(CCN(Cc3cccc(C(F)(F)F)c3)CC2)C1` (stereo not drawn) registered an RP-LC retention time of 592 s.
To `O=C1CCCc2cc(S(=O)(=O)N3CCC(C(=O)NC4CCCCCC4)CC3)ccc2N1` belongs 769 s; to `CC1(C)C(=O)NCCN1C(=O)c1cccc(C(F)(F)F)c1`, 662 s.
For `Cc1ccc(Cn2nc(C(=O)N3CCCc4cc(C)ccc43)ccc2=O)cc1` the value was 946 s; for `CC(C)n1c(=O)oc2cc(-c3noc(-c4ccccc4)n3)ccc21`, 1060 s; for `Cc1c(C(=O)NCC2CC2)cnn1-c1cc(-c2nc(C3CC3)no2)ccn1`, 909 s.
For `O=C(C1CCCC1)N1CCN(c2cc(-c3ccccc3)[nH]n2)CC1` the value was 782 s.
As to `N#Cc1ccc(-c2nc(-c3ccc4c(c3)nnn4CCC(=O)N3CCOCC3)no2)c(F)c1`, the RP-LC retention time is 674 s.
To `CN1C(=O)c2cccn2CC1C(=O)Nc1cccc(Cl)c1` (stereo not drawn) belongs 730 s.
For `O=C1CC2(CCCC2)CC(=O)N1CCCCNCC1COc2ccccc2O1` (stereo not drawn), the RP-LC retention time was determined as 758 s.
For `Cc1cc2nc(C(=O)Nc3cccc(F)c3)cc(C)n2n1` the value was 970 s.
Take `O=C(C1CCN(c2cncnc2N2CCOCC2)CC1)N1CCN(c2ccccc2)CC1`: the RP-LC retention time came to 629 s.
To `COc1ccc(CCNC(=O)NC(C)Cc2cccs2)cc1` (stereo not drawn) belongs 781 s; to `CCCn1c(=O)c2cc(C(=O)NCCCc3ccccc3)nn2c2ccccc21`, 1060 s; to `CCc1cccc(NC(=O)Cn2c(CC)nc3c(c2=O)CN(Cc2ccccc2)CC3)c1`, 718 s.
For `O=C(c1ccc(Cn2cncn2)cc1)N1CCN(c2ccc(Cl)cc2)CC1` the value was 774 s.

Source of the values: the METLIN SMRT retention time set (Domingo-Almenara et al. 2019).
